Where a SMILES comes first, the peptide text is derived from it. The star is where a group is joined. MeOSuc = COC(=O)CCC(=O)*
Target: 20S proteasome
Test: Compound was evaluated for inhibitory activity against 20S proteasome from human liver and brain
Format: subcellular

SMILES | IC50 [nM]
COC(=O)CCCCCCCC(=O)N[C@H](CCC/N=C(\N)NS(=O)(=O)c1c(C)c(C)c2c(c1C)CCC(C)(C)O2)C(=O)NC(C=O)CC(C)C (some centres not stated) | > 3000
COC(=O)CCC(=O)N[C@@H](CCC(=O)O)C(=O)N[C@H](C(=O)N[C@@H](CCCCN)C(=O)N[C@@H](Cc1ccccc1)C(=O)O)C(C)C (MeOSuc-EVKF-OH) | 1000
COC(=O)CCCCCCCC(=O)NC(CCC/N=C(\N)N[N+](=O)[O-])C(=O)NC(C=O)CC(C)C (configuration not stated) | 40
CC(C)CC(C=O)NC(=O)C(CCC/N=C(\N)N[N+](=O)[O-])NC(=O)C(CCCCCCCCN1C(=O)c2ccccc2C1=O)C1CCCC1 (configuration not stated) | 2
COC(=O)CCCCCCCC(=O)NC(CCC/N=C(\N)NS(=O)(=O)c1c(C)c(C)c2c(c1C)CCC(C)(C)O2)C(=O)NC(C=O)CC(C)C (single isomer, unassigned) | 20
CC(C)CC(C=O)NC(=O)C(CCC/N=C(\N)N[N+](=O)[O-])NC(=O)C(CCCCCCCCC#N)C1CCCC1 (configuration not stated) | 6
COC(=O)CCCCCCCC(=O)NC(CCC/N=C(\N)NS(=O)(=O)c1c(C)cc(OC)c(C)c1C)C(=O)NC(C=O)CC(C)C (configuration not stated) | 95

— ChEMBL document CHEMBL1128409, “Potent inhibitors of proteasome” (J Med Chem, 1995)
